Compound	melting point [°C]
COc1ccc(C2Nn3c(nnc3-c3cccc([N+](=O)[O-])c3)S2)cc1 (configuration not stated)	206
NCc1ccccn1	-20
CN(C)C(CSS(=O)(=O)c1ccccc1)CSS(=O)(=O)c1ccccc1	83.5
Cc1ccc(O)c(-n2nc3ccccc3n2)c1	132
CCc1cccc2c1CCCC2	-44.5
NCc1cccc2c(Br)cccc12	138 to 139
Cc1cc(=O)[nH]c2c(/N=N/c3cccc([N+](=O)[O-])c3)c(N)nn12	318
Brc1ccc2c(c1)OCCOCCOCCOCCO2	66 to 71
CN1CCN(c2ccc(N)cc2)CC1	92
CCCCCCC(=O)OCCCCC	-50
N#Cc1cccc(CS(=O)(=O)Cl)c1	100 to 102
Cc1cc(C)c(P(c2c(C)cc(C)cc2C)c2c(C)cc(C)cc2C)c(C)c1	187
O=C(OCC(=O)N1CCC[C@H]1C(=O)O)c1ccccc1	116
O=Cc1c(F)cc(F)cc1F	66
NC(=S)NN=C1C2CCCC1C1(O)CCCCC1C2 (configuration not stated)	184
O=Cc1ccccc1Sc1ccc(Cl)cc1	73
Cc1ccc(F)c([N+](=O)[O-])c1	28 to 30
CN(C)c1nc(-c2cccs2)cc(C(F)(F)F)c1C#N	118 to 119
CC/C=C\C/C=C\C/C=C\CCCCCCCC(=O)O	-16.5
Cc1cc(C(F)(F)F)n2nc(N)c(/N=N/c3ccccc3)c2n1	201 to 203
O=C(O)c1ccc(CSc2ccc(C(F)(F)F)cn2)o1	176 to 178
O=[N+]([O-])c1c(Cl)ncnc1Cl	102

Compound	melting point [°C]
Cn1ncc2c(Cl)ncnc21	97 to 100
CCCCCCCC(O)CC (configuration not stated)	-5
N#Cc1cccc(F)n1	34
N#Cc1ccc(N2CCCNCC2)nc1	63 to 65
N#C/C(=N\Nc1c(Cl)cc(Cl)cc1Cl)c1nc2ccccc2[nH]1	263
CCCCn1c2ccccc2c2ccccc21	58
CC(C)(C)c1ccc(C2CCC3(CC2)Cc2ccc(O)cc2C3)cc1 (configuration not stated)	156
O=C(N=C=S)c1ccc([N+](=O)[O-])cc1	90 to 92
CC(=O)/C(=N\Nc1cccc(C(F)(F)F)c1)C(=O)C(F)(F)F	85 to 87
O=C1NC(=O)C(c2ccccc2)(c2ccccc2)N1	295
Cn1ccnc1	-6
O=C(Nc1ccccc1NC(=O)c1ccccc1)c1ccccc1	301 to 302
O=C(O)Cc1ccc(C(=O)CCl)s1	101 to 104
COC(=O)C(C#N)=C(SC)SC	85 to 87
NS(=O)(=O)c1ccc(SCCCO)c(F)c1	110
CCCCCCCCCCCCN1CCCCCC1=O	-7
Nc1ncccc1C=O	101
CCC(C)I (configuration not stated)	-104
Cn1c(=O)c(C2=NNC(=O)C2=Cc2ccc3c(c2)OCO3)c(O)c2ccccc21	265
NCCCCCCCCN	52
CC(=O)C1(C)Cc2ccccc2C(=O)O1 (configuration not stated)	105
N[C@@H](CCC(=O)N[C@@H](CCC(=O)O)C(=O)O)C(=O)O	179 to 182

Compound	melting point [°C]
CNC[C@H](O)[C@@H](O)[C@H](O)[C@H](O)CO	128
CCCCCC(=O)Cc1cc(O)cc2c1C(=O)Oc1cc(O)c(C(=O)O)c(CCCCC)c1O2	205
COCCl	-104
COc1ccc(C(=O)CCl)cc1	98 to 100
O=P(O)(O)C(Cl)(Cl)P(=O)(O)O	250
O=C(C1=NOC2C(=O)N(c3ccc(F)cc3)C(=O)C12)c1ccc2ccccc2c1 (configuration not stated)	193
COC(=O)CCC(C)C1CCC2C3C=CC4CCCCC4(C)C3CCC12C (configuration not stated)	60
CC(N)C(C)(C)C (configuration not stated)	-20
COc1ccccc1OCC(=O)O	120
Cc1ccc2cnccc2c1	85.5
Nc1c(I)cc(I)c(C(=O)N(CCC(=O)O)c2ccccc2)c1I	134
N#Cc1ccc2occc2c1	84 to 86
Cc1cc(N)n(-c2ccccc2)n1	116
CNC(=C[N+](=O)[O-])NCCSCc1ccc(CN(C)C)o1	69
CC(OCC(=O)c1ccccc1)=C(C#N)c1ccccc1	111
NC(=S)NC1CCCCC1	162
OC(c1ccccc1)c1cccc(C(F)(F)F)c1 (configuration not stated)	63
C#CC#C	-36.4
Cc1ccc(C(O)C2C(=O)N(c3ccccc3)N=C2C(F)(F)F)cc1 (configuration not stated)	257
O=C1CCCN1c1ccccc1	66
Cc1cccc2c1/C(=N/Nc1ccc([N+](=O)[O-])cc1[N+](=O)[O-])C2	228
CC1(C)OC(C)(C(C)(C)O)CCC1C(=O)O (configuration not stated)	111

Compound	melting point [°C]
CCCCCCCCCCCCS(=O)(=O)Cl	40.5
CCCCC(C)CCO (configuration not stated)	-90
COC(=O)C(Br)C(Br)c1cccc(C(Br)C(Br)C(=O)OC)c1 (configuration not stated)	145
CCCCCCCCCCCCCCCC(=O)OCC	24
O=Cc1ccc(C=CC(=O)O)cc1	250 to 255
FC(F)(F)c1nnc(S)n1/N=C/c1ccc2c(c1)OCO2	221
COc1ccc(NS(=O)(=O)c2ccc(N)cc2)nn1	182
CCOC(=O)C1=NN(c2ccccc2)C(=O)C1C(Cl)C1C(=O)N(c2ccccc2)N=C1C(=O)OCC (configuration not stated)	221
CSC(=Nc1nnc(-c2ccc([N+](=O)[O-])cc2)s1)SC	> 250
c1ccc(-c2nccnc2-c2ccccc2)cc1	121
CC(=O)CC(=O)Nc1ccccc1C	105
CCOC(=O)C(CC)c1ccc(C)cc1 (configuration not stated)	130
Clc1cccc2ncccc12	45
NCc1cc2ccccc2s1	58 to 59
Oc1ccc(I)cn1	190
CN1C(=O)c2ccccc2C1O (configuration not stated)	133
CCOC=C(C#N)S(=O)(=O)c1ccc2ccccc2c1	90 to 92.5
O=C(c1cccs1)c1noc(-c2ccc(Cl)cc2)c1S(=O)(=O)c1ccccc1	125
O=CC=Cc1ccc([N+](=O)[O-])cc1	142
Nc1cccnc1N	114 to 116
Cc1ccncc1/C=C/C(=O)O	137
N#C/C(=N\Nc1ccc([N+](=O)[O-])cc1)c1nc2ccccc2c(=O)[nH]1	273

Compound	melting point [°C]
O=C1NC(=S)NC(=O)C1=Cc1ccc(Br)o1	215
O=S(=O)(NO)c1ccccc1	120 to 125
CN(C)c1ccc([N+](=O)[O-])c(N)c1	134 to 139
FC(F)(F)c1ccccc1-n1cc[nH]c1=S	236 to 238
CCN1CCCC1CNC(=O)c1cc(S(=O)(=O)CC)c(N)cc1OC (configuration not stated)	126
Cc1ccc(O)cc1N	158
O=C(c1ccc(F)cc1)c1ccccc1F	22 to 24
Cc1nc2nn(C)cc2c(=O)n1N	147 to 148
O=S(=O)(Cl)c1ccc(-c2ccccc2)nc1	106 to 108
C=CCNC(=O)OC(C)(C)C	37
Nc1ncnc2c1ccn2C1OC(CO)C(O)C1O (configuration not stated)	247
COC(=O)CC(=O)c1ccc(C(F)(F)F)cc1	57 to 62
Oc1ccc(F)c2cccnc12	110
CCCCCCCCCCCCCCCCCCCCCCCCCC(=O)OC	63.8
O=[N+]([O-])c1cccc(OCCN2CCOCC2)c1	50 to 53
CCCC(O)C(O)CO (configuration not stated)	66
FC(F)(F)C(F)(F)C(F)(F)C(F)(F)C(F)(F)C(F)(F)F	-4
CC(=Cc1ccccc1)C(=O)Cl	45 to 46
CC1(C(=O)O)CCC(CCc2ccccc2)C1(C)C (configuration not stated)	118
Cc1ccc(OP2(=S)Oc3ccc(Cl)cc3Sc3cc(Cl)ccc3O2)c(C)c1	149
O=C(O)COCCN1C(=O)c2ccccc2C1=O	128
O=C(CBr)c1cccc(Br)c1	51 to 52

Compound	melting point [°C]
Sc1ncccn1	230
CCOC(=O)C=Cc1ccc(C=CC(=O)OCC)c(N)c1	178
Cc1nc(-c2cccc(-n3cccc3)c2)sc1C(=O)NN	185 to 186
CC1CCC(C)(COC(=O)c2ccc([N+](=O)[O-])cc2)C1(C)C (configuration not stated)	95
CCCOC(=O)CCC(=O)OCCC	-5.9
CCCc1ccc(C(=O)CCC(=O)O)cc1	117 to 119
CCN(CC)C(=O)c1ccc(O)c(OC)c1	95
CCC(C(=O)C=Cc1ccccc1)C(=O)OC1CC(C)CCC1C(C)C (configuration not stated)	135
Cc1cc(N=Nc2ccccc2)c(C(C)C)cc1[N+]([O-])=Nc1ccccc1	118
O=c1[nH][nH]c(=O)[nH]1	250
Cc1cc(C(=O)NNCc2ccccc2)no1	106
COC(CN1CCN(CC(O)C(OC)c2ccccc2)CC1)c1ccccc1 (configuration not stated)	83
CCC(C)(Cl)Cl	-74
CC12CC(O)C3C(CCC4(O)CC(O)CC(O)C34CO)C1(O)CCC2C1=CC(=O)OC1 (configuration not stated)	236
CCSc1sc(C(=O)OC)c2c1C(=O)CC(C)(C)C2	116 to 119
COc1cc2ccc(=O)oc2cc1O	204
CCCCC1C(=O)NN(c2ccccc2)C1=O (configuration not stated)	102
CCc1cc(Cc2cc(CC)c(N)c(CC)c2)cc(CC)c1N	88 to 91
CCOc1ccc2ccc(=O)oc2c1	90
CCCCCCCCCCOc1ccccc1OCCCCCCCCCC	39 to 42
CCCC(=O)Nc1ccc(O)cc1	140
O=C(O)CCSSCCC(=O)O	158

Reference: a melting point compilation (Tetko et al.)
